Test results published in US20260083743A1, “NUCLEOSIDE DERIVATIVE FOR PREVENTING AND TREATING INFLAMMATION AND APPLICATION THEREOF” (WEST CHINA HOSPITAL OF SICHUAN UNIVERSITY, priority 2019, published 2026).

Tests used:
[1] = system: sodium taurocholate-induced pancreatitis model; assay: Improvement effect on pancreatitis, sodium taurocholate-induced model in mice; type: in vivo, Blab/c mice; set-up: Pancreatic histopathological injury score: scale not given here; conditions: 17.5 mg/kg caudal vein 1 h, 3 h and 6 h after model construction; after 24 hours; n = 10
Excerpt: In this example, the improvement effect of compounds 1 19 prepared in example 1 on […] measured. (1) Animals: Adult and Healthy Male Blab/c Mice, 25 30 g. […] A model was made with sodium taurocholate. […] After anesthesia, the surgical site was sterilized with an alcohol cotton ball. The sterile gauze was placed on the surgical site. A laparotomy was made at the width of two fingers under the xiphoid process. After seeing the liver, an incision was made, the cotton swab soaked in normal saline was stretched into the enterocoelia, the duodenum was sought on the back of the liver, turned out and placed on the sterile gauze, the pancreaticobiliary duct and duodenal papilla were sought, and the needle of 1 mL syringe was used to pierce a hole on the along the direction of the nipple, a 24 G indwelling needle tube was inserted into the pancreatic duct along the nipple, and the common bile duct below the liver was closed with an arterial vascular clip, with a dose of 0.1 mL/100 g and 0.1 mL/min inject sodium taurocholate with a concentration of 3.8% at a flow rate. During this process, pay attention to adding saline to the exposed pancreas and duodenum to keep it moist. After the injection, the tube was slowly taken out and the bile duct was continued to be closed. The main tube was removed from the vascular artery clip 3 minutes later, the duodenum was also accommodated, and the abdominal cavity was sutured in double layers. The blank control group was injected with equal volume of isotonic saline. […] The blank control group and the model control group were given equal volume of isotonic saline. After 24 hours, pancreatic tissue and blood samples were taken, and the pancreatic histopathological injury score and the level of pancreatic amylase in serum were evaluated.

arthritis model = assay: Improvement effect on arthritis, sodium iodoacetate knee joint model in SD rats; type: in vivo; set-up: Pathological tissue score (joint): scale not given here; conditions: gavage every day 100 mg/kg/d; 4th week after operation; n = 10
Method: In this example, the improvement effect of compounds 1˜19 prepared in example 1 on arthritic was measured. (1) Animals: SD rats, four rates in one cage, were fed under the conditions of constant temperature (25±2° C.) and illumination control (12 h day/night circulation). The animals were fed with standard feed, and fed for at least 7 days to adapt environment before the experiment. […] (3) SD rats were fasted for 12 hours before operation, and weighed and recorded prior to operation. The blank control group was not treated any more. […] After anesthesia, they were fixed in the supine position. 0.1 ml of 1 g/L sodium iodoacetate solution was injected into the knee joint. From the fifth day, the animals were driven to run for 30 minutes every day, and they were allowed to move freely in the cage the rest of the time. After modeling, indomethacin and compounds 1˜19 were given by gavage every day at the dose of 100 mg/kg/d. The blank control group and the model control group were given equal volume of isotonic saline. At the 4th week after operation, the articular fluid of rats in each group was extracted to measure the content of MMP-13. The rats were killed, and the subchondral bone plate of the inner condyle of the tibia of the right knee was cut and processed into specimens, and pathological scores were made.

mouse hepatitis model = assay: Improvement effect on hepatitis, concanavalin A (ConA) mouse hepatitis model; type: in vivo, Blab/c mice; conditions: gavage 50 mg/kg, n = 10
Method: In this example, the improvement effect of compounds 1 19 prepared in example 1 on […] measured. (1) Animals: Adult and Healthy Male Blab/c Mice, 25 30 g. […] The blank control group was injected with equal volume of isotonic saline. After modeling, indomethacin and compounds 1 19 were given by gavage every day at the dose of 50 mg/kg. The blank control group and the model control group were given equal volume of isotonic saline. Eyeball blood and liver tissue were taken at 6 h, 12 h, 24 h and 48 h after administration. The levels of serum alanine aminotransferase (ALT) and aspartate aminotransferase (AST) were measured.

Compound | Amylopsin (pancreatic amylase level in serum) [1] [KU/L] | Pancreatic histopathological injury score [1] | MMP-13 content in joint fluid (arthritis model) [mg/L] | Pathological tissue score (joint) (arthritis model) | Aspartate aminotransferase (AST) (mouse hepatitis model; 6 h after administration) [U/L] | Serum alanine aminotransferase (ALT) (mouse hepatitis model; 6 h after administration) [U/L] | Aspartate aminotransferase (AST) (mouse hepatitis model; 12 h after administration) [U/L] | Serum alanine aminotransferase (ALT) (mouse hepatitis model; 12 h after administration) [U/L] | Aspartate aminotransferase (AST) (mouse hepatitis model; 24 h after administration) [U/L] | Serum alanine aminotransferase (ALT) (mouse hepatitis model; 24 h after administration) [U/L] | Aspartate aminotransferase (AST) (mouse hepatitis model; 48 h after administration) [U/L] | Serum alanine aminotransferase (ALT) (mouse hepatitis model; 48 h after administration) [U/L]
CNCCn1c(=O)c2c(ncn2C)n(C)c1=O [Compound 11, 1-(2-methylaminoethyl)-3,7-dimethylxanthine] | 5 ± 3 | 0.5 ± 0.2 | 86 ± 5 | 0.3 ± 0.3 | 48 ± 7 | 54 ± 6 | 89 ± 8 | 92 ± 9 | 112 ± 12 | 142 ± 14 | 95 ± 9 | 110 ± 13
CCNCCn1c(=O)c2c(ncn2C)n(C)c1=O [Compound 12, 1-(2-ethylaminoethyl)-3,7-dimethylxanthine] | 4 ± 2 | 0.4 ± 0.5 | 83 ± 8 | 0.3 ± 0.4 | 58 ± 7 | 76 ± 8 | 93 ± 9 | 113 ± 12 | 121 ± 19 | 162 ± 16 | 102 ± 9 | 121 ± 13
CC(C)NCCn1c(=O)c2c(ncn2C)n(C)c1=O [Compound 13, 1-(2-isopropylaminoethyl)-3,7-dimethylxanthine] | 6 ± 2 | 1.8 ± 0.2 | 98 ± 5 | 0.3 ± 0.5 | 63 ± 7 | 87 ± 9 | 102 ± 12 | 121 ± 13 | 132 ± 13 | 172 ± 17 | 93 ± 9 | 143 ± 12
CCCNCCn1c(=O)c2c(ncn2C)n(C)c1=O [Compound 14, 1-(2-propylaminoethyl)-3,7-dimethylxanthine] | 5 ± 3 | 1.9 ± 0.4 | 93 ± 7 | 0.7 ± 0.3 | 65 ± 7 | 56 ± 8 | 93 ± 12 | 134 ± 15 | 152 ± 15 | 193 ± 12 | 119 ± 12 | 132 ± 13
CC(=O)CCn1c(=O)c2c(ncn2C)n(C)c1=O [Compound 15, 1-(2-acetylethyl)-3,7-dimethylxanthine] | 5 ± 4 | 1.6 ± 0.4 | 91 ± 7 | 0.6 ± 0.5 | 65 ± 7 | 65 ± 8 | 118 ± 18 | 171 ± 15 | 198 ± 18 | 218 ± 26 | 129 ± 9 | 132 ± 12
